In series [1] the test system is VCAM-1. Kind of series: In Vitro VCAM-1 Assay (TNF-α stimulated endothelial cells, cell-surface ELISA). It is filed as cell-based. The following applies: primary human aortic (HAEC) or pulmonary (HPAEC) endothelial cells, TNF-α 1 ng/ml, approximately 16 hours, ELISA OD 450 nm. The method, then: Cell Culture and compound dosing: Cultured primary human aortic (HAEC) or pulmonary (HPAEC) endothelial cells were obtained from Clonetics, Inc., and were used below passage 9. Cells were seeded in 96 well plates such that they would reach 90–95% confluency by the following day. On the following day the cells were stimulated with TNF-α (1 ng/ml) in the presence or absence of compounds dissolved in DMSO such that the final concentration of DMSO is 0.25% or less. To establish a dose curve for each compound, four concentrations in 2- to 5-fold increments were used. Cells were exposed to TNF-α and compounds for approximately 16 hours. The next day the cells were examined under microscope to score for visual signs of toxicity or cell stress.
Following 16 hr exposure to TNF-α and compound the media was discarded and the cells were washed once with Hanks Balanced Salt Solution (HBSS)/Phosphate buffered saline (PBS) (1:1). Primary antibodies against VCAM-1 (0.25 μg/ml in HBSS/PBS+5% FBS) were added and incubated for 30–60 minutes at 37° C. Cells were washed with HBSS/PBS three times, and secondary antibody Horse Radish Peroxidase (HRP)-conjugated goat anti-mouse IgG (1:500 in HBSS/PBS+5% FBS) were added and incubated for 30 minutes at 37° C. Cells were washed with HBSS/PBS four time and TMB substrate were added and incubated at room temperature in the dark until there was adequate development of blue color. The length of time of incubation was typically 5–15 minutes. 2N sulfuric acid was added to stop the color development and the data was collected by reading the absorbance on a BioRad ELISA plate reader at OD 450 nm. The results are expressed as IC50 values (the concentration (micromolar) of compound required to inhibit 50% of the maximal response of the control sample stimulated by TNF-α only).
(In general: ELISA stands for enzyme-linked immunosorbent assay.)

Where [2] appears, read: Homo sapiens, Endothelial cell, 16 h.

Structures can show the parent of a compound that is named as a salt.

Results on 26 compounds are retold here after US7173129B2, “Sulfonamide-substituted chalcone derivatives and their use to treat diseases” (Athero Genics, Inc., priority 2003, dated 2007).

Turning to `COc1cc(OC)c(-c2cccs2)cc1/C=C/C(=O)c1ccc(S(=O)(=O)Nc2cc(C)on2)cc1` [Example 1, 4-[3E-(2,4-Dimethoxy-5-thien-2-yl-phenyl)acryloyl]-N-(5-methylisoxazol-3-yl)benzenesulfonamide], the melting point lay in the range of 202 to 203 °C. The compound further came in with an IC50 in series [1] (setting [2]) below 5 µM.

`CNS(=O)(=O)c1ccc(C(=O)/C=C/c2cc(-c3cc4ccccc4n3C)c(OC)cc2OC)cc1` [Example 29, 4-{3E-[2,4-Dimethoxy-5-(1-methyl-1H-indol-2-yl)phenyl]acryloyl}-N-methyl-benzenesulfonamide] yielded a melting point of 129 to 131 °C. Also, the 50% inhibitory concentration (IC50) in series [1] (setting [2]) is below 5 µM. Regarding `COc1cc(OC)c(-c2cc3ccccc3[nH]2)cc1/C=C/C(=O)c1ccc(S(=O)(=O)[N-]C(C)=O)cc1.[Na+]` [Example 43, N-Acetyl-4-{3E-[5-(1H-indol-2-yl)-2,4-dimethoxyphenyl]acryloyl}benzenesulfonamide sodium salt], the melting point is 240 to 250 °C. For the same compound, the IC50 in series [1] (sodium salt) was below 5 µM.

Consider `COc1cc(OC)c(-c2cccs2)cc1/C=C/C(=O)c1ccc(S(=O)(=O)NCC(F)(F)F)cc1` (as salt: sodium) [Example 25, 4-[3E-(2,4-Dimethoxy-5-thien-2-ylphenyl)acryloyl]-N-(2,2,2-trifluoroethyl)benzenesulfonamide sodium salt], for which the melting point lay within 160 to 170 °C.

As to `COc1cc(OC)c(-c2cccs2)cc1/C=C/C(=O)c1ccc(S(=O)(=O)NCCCn2ccnc2)cc1` [Example 23, 4-[3E-(2,4-Dimethoxy-5-thien-2-ylphenyl)acryloyl]-N-(3-imidazol-1-ylpropyl)benzenesulfonamide], the melting point fell in the range of 160 to 162 °C. In addition, in series [1] (setting [2]), the IC50 was below 5 µM.

For the compound `COc1cc(OC)c(-c2cccs2)cc1/C=C/C(=O)c1ccc(S(=O)(=O)NN2CCCCC2)cc1` [Example 22, 4-[3E-(2,4-Dimethoxy-5-thien-2-ylphenyl)acryloyl]-N-piperidin-1-ylbenzenesulfonamide], the melting point is 174 to 176 °C. For the same compound, the IC50 in series [1] (setting [2]) is above 10 µM. `CCCC(=O)[N-]S(=O)(=O)c1ccc(C(=O)/C=C/c2cc(-c3cc4ccccc4[nH]3)c(OC)cc2OC)cc1.[Na+]` [Example 49, N-Butyryl-4-{3E-[5-(1H-indol-2-yl)-2,4-dimethoxyphenyl]acryloyl}benzenesulfonamide sodium salt] gave a melting point of 191 to 193 °C. Take `COc1cc(OC)c(-c2cc3ccccc3n2C)cc1/C=C/C(=O)c1ccc(S(=O)(=O)NCCN2CCOCC2)cc1` [Example 18, 4-{3E-[2,4-Dimethoxy-5-(1-methyl-1H-indol-2-yl)phenyl]acryloyl}-N-(2-morpholin-4-yl-ethyl)benzenesulfonamide]: the melting point lay in the range of 167 to 168 °C. The same compound came in with an IC50 in series [1] (setting [2]) below 10 µM. As to `COc1cc(OC)c(-c2cc3ccccc3n2C)cc1/C=C/C(=O)c1ccc(S(=O)(=O)Nc2cc(C)on2)cc1` [Example 16, 4-{3E-[2,4-Dimethoxy-5-(1-methyl-1H-indol-2-yl)phenyl]acryloyl}-N-(5-methylisoxazol-3-yl)benzenesulfonamide sodium salt], the IC50 in series [1] (setting [2]) is below 5 µM. For the compound `COc1cc(OC)c(-c2cccs2)cc1/C=C/C(=O)c1ccc(S(=O)(=O)NCC(=O)O)cc1` [Example 26, {4-[3E-(2,4-Dimethoxy-5-thien-2-ylphenyl)acryloyl]benzenesulfonylamino}acetic acid], the melting point was 100 to 101 °C. The half-inhibitory concentration (IC50) in series [1] (setting [2]) was above 10 µM. `CCC(=O)[N-]S(=O)(=O)c1ccc(C(=O)/C=C/c2cc(-c3cc4ccccc4[nH]3)c(OC)cc2OC)cc1.[Na+]` [Example 46, 4-{3E-[5-(1H-Indol-2-yl)-2,4-dimethoxyphenyl]acryloyl}-N-propionylbenzenesulfonamide sodium salt] gave a melting point above 250 °C. Regarding `COc1cc(OC)c(-c2cccn2C)cc1/C=C/C(=O)c1ccc(S(=O)(=O)Nc2cc(C)on2)cc1` [Example 44, 4-{3E-[2,4-Dimethoxy-5-(1-methyl-1H-pyrrol-2-yl)phenyl]acryloyl}-N-(5-methyl-isoxazol-3-yl)benzenesulfonamide], the melting point fell in the range of 113 to 115 °C. This compound gave an IC50 in series [1] (setting [2]) below 5 µM. As for `COc1cc(OC)c(N2CCCC2)cc1/C=C/C(=O)c1ccc(S(=O)(=O)Nc2cc(C)on2)cc1` [Example 38, 4-[3E-(2,4-Dimethoxy-5-pyrrolidin-1-yl-phenyl)acryloyl]-N-(5-methyl-isoxazol-3-yl)benzenesulfonamide], the melting point lay within 164 to 165 °C. In addition, the IC50 in series [1] (setting [2]) is below 5 µM. `CCOC(=O)[N-]S(=O)(=O)c1ccc(C(=O)/C=C/c2cc(-c3cc4ccccc4[nH]3)c(OC)cc2OC)cc1.[K+]` [Example 40, N-Ethoxycarbonyl-4-{3E-[5-(1H-indol-2-yl)-2,4-dimethoxyphenyl]acryloyl}benzenesulfonamide potassium salt]: the melting point lay within 220 to 222 °C. For the compound `COc1cc(OC)c(-c2cc3ccccc3n2C)cc1/C=C/C(=O)c1ccc(S(=O)(=O)NO[Si](C)(C)C(C)(C)C)cc1` [Example 33, 4-{3E-[2,4-Dimethoxy-5-(1-methyl-1H-indol-2-yl)phenyl]acryloyl}-N-(tert-butyldimethylsiloxy)benzenesulfonamide], the melting point lay within 129 to 131 °C. Also, the IC50 in series [1] (Endothelial cell) was above 10 µM. In series [1] (setting [2]), `CCCC(=O)NS(=O)(=O)c1ccc(C(=O)/C=C/c2cc(-c3cc4ccccc4[nH]3)c(OC)cc2OC)cc1` [Example 47, N-Butyryl-4-{3E-[5-(1H-indol-2-yl)-2,4-dimethoxyphenyl]acryl}benzenesulfonamide] registered a half-maximal inhibitory concentration (IC50) below 5 µM. Still for that read-out and setting: next, `CCOC(=O)NS(=O)(=O)c1ccc(C(=O)/C=C/c2cc(-c3cc4ccccc4[nH]3)c(OC)cc2OC)cc1` [Example 41, N-Ethoxycarbonyl-4-{3E-[5-(1H-indol-2-yl)-2,4-dimethoxyphenyl]acryloyl}benzenesulfonamide]: below 5 µM; `CCCC(=O)NS(=O)(=O)c1ccc(C(=O)/C=C/c2cc(N3CCCC3)c(OC)cc2OC)cc1` [Example 48, N-Butyryl-4-[3E-(2,4-dimethoxy-5-pyrrolidin-1-ylphenyl)acryloyl]benzenesulfonamide]: below 5 µM. Compound `COc1cc(OC)c(-c2cc3ccccc3n2C)cc1/C=C/C(=O)c1ccc(S(=O)(=O)Nc2cc(C)on2)cc1` (as salt: sodium) [Example 16, 4-{3E-[2,4-Dimethoxy-5-(1-methyl-1H-indol-2-yl)phenyl]acryloyl}-N-(5-methylisoxazol-3-yl)benzenesulfonamide sodium salt] yielded a melting point of 202 to 206 °C. On the same count and under the same terms, next, `COc1cc(OC)c(-c2cccs2)cc1/C=C/C(=O)c1ccc(S(=O)(=O)Nc2cc(C)on2)cc1` (as salt: sodium) [Example 2, 4-[3E-(2,4-Dimethoxy-5-thien-2-ylphenyl)acryloyl]-N-(5-methylisoxazol-3-yl)benzenesulfonamide sodium salt]: above 260 °C. `COc1cc(OC)c(-c2cccs2)cc1/C=C/C(=O)c1ccc(S(=O)(=O)Nc2nnn[nH]2)cc1` [Example 4, 4-[3E-(2,4-Dimethoxy-5-thien-2-ylphenyl)acryloyl]-N-(1-H-tetrazol-5-yl)benzenesulfonamide] showed an IC50 in series [1] above 10 µM. On the same count and under the same terms, next, `COc1cc(OC)c(-c2cccs2)cc1/C=C/C(=O)c1ccc(S(=O)(=O)Nc2cc(C)no2)cc1` [Example 9]: below 10 µM.

In series [1] (setting [2]), `COc1cc(OC)c(-c2cccs2)cc1/C=C/C(=O)c1ccc(S(=O)(=O)N2CCCCC2C(=O)O)cc1` (stereo not drawn) [Example 28, 1-{4-[3E-(2,4-Dimethoxy-5-thien-2-ylphenyl)acryloyl]benzenesulfonyl}piperidine-2-carboxylic acid] displayed an IC50 below 10 µM. With `COc1cc(OC)c(-c2cc3ccccc3[nH]2)cc1/C=C/C(=O)c1ccc(S(=O)(=O)[N-]C(=O)C(C)C)cc1.[Na+]` [Example 36, 4-{3E-[5-(1H-Indol-2-yl)-2,4-dimethoxyphenyl]acryloyl}-N-isobutyrylbenzenesulfonamide sodium salt], the melting point was 249 to 251 °C (dec.). As for `COc1cc(OC)c(-c2cc3ccccc3n2C)cc1/C=C/C(=O)c1ccc(S(=O)(=O)NCc2cccnc2)cc1` [Example 17, 4-{3E-[2,4-Dimethoxy-5-(1-methyl-1H-indol-2-yl)phenyl]acryloyl}-N-pyridin-3-ylmethy-benzenesulfonamide], the IC50 in series [1] is below 10 µM. On the same count and under the same terms, next, `COc1cc(OC)c(-c2cccs2)cc1/C=C/C(=O)c1ccc(S(=O)(=O)N2CCN(C)CC2)cc1` [Example 21, 3E-(2,4-Dimethoxy-5-thien-2-ylphenyl)-1-[4-(4-methylpiperazine-1-sulfonyl)phenyl]propenone]: below 10 µM.

Usually melting point stands for the temperature, or range, at which the solid turns liquid. As a reminder, the IC50 is the concentration needed to halve the response being measured.
